Data from US12564568B2, “PKC pathway in Parkinson's Disease” (CEDARS-SINAI MEDICAL CENTER, priority 2018, dated 2026).

Legend:
LAMP1 = LAMP1 level in day 30 mDA cultures after PEP005 (western blot); assay type: cell-based, human
SNCA = SNCA gene expression over PEP005 time-course (qPCR); assay type: cell-based, human; conditions: 4 hours after PEP005 treatment
Description: (§1) qPCR: Total cellular RNA was isolated using TRIzol Reagent followed by Qiagen RNeasy Mini kit with DNase treatment. Total RNA (1 μg) was used for cDNA synthesis using the Quantitate Reverse Transcription Kit for cDNA synthesis for PCR (Qiagen). Real-time PCR was performed using the SYBR Green Supermix (BIO-RAD). The levels of expression of respective genes were normalized to corresponding GAPDH values and shown as fold change relative to the value of the control sample (ΔΔCt method)

[1] = tested on: tyrosine hydroxylase (TH); assay type: cell-based, human
Description: iPSC maintenance, mDA neuron differentiation and drug treatments: iPSCs were maintained in E8 media on Matrigel and passaged every 5 days at split ratios from 1:6 to 1:12 as needed using Versene. Only iPSCs between passage 17 and passage 35 were used in this study. For differentiation, iPSCs were grown to ˜80% confluency. Cells were singularized with Accutase (Millipore/Sigma #SCR005) (5 minutes at 37° C.) and plated onto Matrigel-coated 6-well plates (BD Biosciences) at 200K cells per cm^2 (for a fully confluent monolayer) in E8 media with 5 μM Y27632 (StemGent). 24 hours after plating, media was changed to Stage 1 (50% DMEM/F12, 50% Neurobasal, N2, B27-Vitamin A, LDN-193189 (LDN), SB431542 (SB)). Stage 1 media was changed each day (3 mL per well) for 3 days. Media was next switched to Stage 2 (50% DMEM/F12, 50% Neurobasal, N2, B27-Vitamin A, LDN, SB, Purmorphamine (PMN), CHIR99021 (CHIR), Sonic hedgehog (SHH), Fibroblast Growth Factor 8 (FGF8)). Stage 2 media was changed each day (3 mL per well) for 4 days. Media was then switched to Stage 3 (50% DMEM/F12, 50% Neurobasal, N2, B27-Vitamin A, LDN, CHIR, all-trans-Retinoic acid (ATRA)). Stage 3 media was changed each day (3 mL per well) for 4 days. Finally, media was switched to Stage 4 (50% DMEM/F12, 50% Neurobasal, N2, B27+Vitamin A, Brain-Derived Neurotrophic Factor (BDNF), Glial Cell Line-Derived Neurotrophic Factor (GDNF), dibutyryl cyclic-AMP sodium salt (dbCAMP), L-Ascorbic Acid (AA), γ-Secretase inhibitor (DAPT), CHIR, Transforming Growth Factor beta-3 (TGF β3)). Stage 4 media was changed each day (3 mL per well) for 3 days. On day 15, cells were dissociated to single cells using Accutase (20 mins at 37° C.) and gently lifted. Dissociated cells were resuspended in Maturation Medium (50% DMEM/F12, 50% Neurobasal, N2, B27+Vitamin A, BDNF, GDNF, dbCAMP, AA, DAPT, TGF3) plus 5 μM Y27632 and reseeded onto Matrigel-coated 6-well plates at 200 k/cm^2 in 1 mL total volume or onto Matrigel-coated L-glass coverslips in a 24-well plate at 200 k/50 μL drop. Cells were allowed to attach for 45 mins at 37° C. and Maturation Medium was then added to final volumes of 3 mL per well for 6-well plates or 1.5 mL per well for 24-well plates with coverslips. A full medium change was performed 48-hours post-seeding and medium was changed every 3 days until day 30. For drug treatments, cells at day-27 were fed with Maturation Medium containing the indicated drug and cells were analyzed at day 30.
Analytical flow cytometry: Day-30 cultures in 6-well plates were washed once in phosphate buffered saline (PBS) then 1 mL Accutase was added to each well and incubated for 25 mins at 37° C. or until the cells fully lifted. Cells were washed with an additional 2 mL Maturation Medium and very gently triturated until large clumps were no longer visible at which point cells were pelleted by centrifugation (1500 RPM for 3 mins). Cells were gently resuspended in 4% paraformaldehyde (PFA) in PBS and allowed to fix for 10-15 mins at room temperature. Fixed single cells were permeabilized using 1% Trition X-100 (Sigma-Aldrich) and stained using primary antibodies against TH (1:500 Immunostar, 22941), α-synuclein (1:1000 Abcam, ab138501), and MAP2ab (1:1000 Sigma-Aldrich, M1406), or isotype controls at same dilution (Cell Signaling IgG Isotype Control rabbit #3900S and mouse #5415S). Secondary antibodies (Alexa Fluor 488 and 594 donkey anti-mouse and donkey anti-rabbit, Invitrogen) were used at 1:500. Stained samples were quantified on an LSR Fortessa cytometer using BD FACSDiva software.
Immunocytochemistry and imaging: mDA neuron cultures were plated on L-glass coverslips and grown as above. Day 30 neurons were fixed in 4% PFA at room temperature for 10-15 mins. […]

[2] = In vitro blood plasma binding, rabbit; assay type: in vitro ADME
Excerpt: (§2) This may complicate IV delivery.

[3] = In vitro blood plasma binding, mini pig; assay type: in vitro ADME
Excerpt: as §2

TH = TH gene expression over PEP005 time-course (qPCR); assay type: cell-based, human; conditions: roughly 8 hours after initial exposure
Description: as §1

[4] = IV bolus dose study, respiratory effects in rat; assay type: in vivo; conditions: doses up to 10 ug/kg
Excerpt: In multiple IV bolus dose studies, the following was observed.

Question: With `C/C=C(/C)C(=O)O[C@H]1C(C)=C[C@]23C(=O)[C@@H](C=C(CO)[C@@H](O)[C@]12O)[C@H]1[C@@H](C[C@H]3C)C1(C)C` [PEP005, ingenol-3-angelate] as the compound, how does the LAMP1 protein (LAMP1; PD cells treated with PEP005) read?
Answer: The LAMP1 protein was “does not appear to be replicated”.

Question: And the LAMP1 protein (LAMP1; PD cells treated with PEP005, listed as PEP)?
Answer: Its LAMP1 protein is “neither LAMP1 nor LC3 respond”.

Question: What about the LAMP1 protein (LAMP1; control and PD cells / all iPSC lines, 1 μM PEP005 for 3 days) of the same compound?
Answer: Its LAMP1 protein is “increase”.

Question: And the LAMP1 protein (LAMP1; control cells treated with PEP005)?
Answer: The LAMP1 protein was “increase”.

Question: What about the “SNCA expression (qPCR)” value (SNCA) of the same compound?
Answer: The value was “downregulated”.

Question: And the TH by immunostaining ([1]; PEP005-treated mDA cultures)?
Answer: The TH by immunostaining was “enhanced”.

Question: What about the “amount of TH enzyme present” value ([1]; both control and PD cultures, 3 days treatment from day 27, listed as PEP) of the same compound?
Answer: Its value is “increase”.

Question: What about the “number of TH neurons (flow cytometry)” value ([1]; d30 mDA cultures, PEP005 72 hrs) of the same compound?
Answer: Its value is “did not result in an increased number”.

Question: And the “level of TH expression in neurons (flow cytometry)” value ([1]; d30 mDA cultures, PEP005 72 hrs, relative to untreated)?
Answer: The value was “significantly higher levels”.

Question: And the plasma binding [2]?
Answer: Its plasma binding is “highly efficient plasma binding”.

Question: And the plasma binding [3]?
Answer: The plasma binding was “highly efficient plasma binding”.

Question: And the “TH expression (qPCR)” value (TH)?
Answer: Its value is “upregulated”.

Question: What about the respiratory effects [4] of the same compound?
Answer: Its respiratory effects is “no biologically relevant responses”.
